Reference: ChEMBL document CHEMBL4418269, “Novel Quinoline-Hepcidine Antagonists” (2012)

target: T1, Hepcidin (Homo sapiens) (UniProt P81172); test: Inhibition of human hepcidin-stimulated recombinant C-terminal Halo-tagged human FPN internalization in MDCK cells at 10 uM incubated for 15 to 20 mins by Halo-tagged TMR based fluorescence assay relative to control; assay type: cell-based
T1 sequence (whole entry): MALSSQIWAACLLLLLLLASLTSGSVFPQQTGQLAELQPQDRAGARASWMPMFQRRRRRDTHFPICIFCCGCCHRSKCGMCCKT

SMILES | inhibition [%]
COc1cc(C(=O)Oc2c(CN3CCOCC3)cc(Cl)c3cccnc23)cc(OC)c1OC | < 50
Oc1c(C(c2ccc(Cl)cc2)N2CCOCC2)cc(Cl)c2cccnc12 (stereo unspecified) | < 50
O=C(Oc1c(CN2CCOCC2)cc(Cl)c2cccnc12)c1ccccc1 | < 50
O=C(Oc1c(CN2CCOCC2)cc(Cl)c2cccnc12)c1ccco1 | < 50
Oc1c(C(c2ccccn2)N2CCOCC2)ccc2cccnc12 (stereo unspecified) | > 50
Oc1c(C(Nc2ccccn2)c2cccnc2)cc(Cl)c2cccnc12 (stereo unspecified) | < 50
